Measurements published in US20040072882A1 (priority 2002, published 2004).
“Also recorded” adds a separate entry of the source. Like-named read-outs stand apart in the source and are kept apart here.

How the values were obtained:
[1] = paclitaxel comparison value; cited from earlier work
[2] = tested on: advanced malignancy, either primary or metastatic; assay: Tumor assessment / tumor markers in patients with advanced malignancy; format: in vivo, human
Source text: Other criteria included adequate liver, renal and hematopoietic function, i.e., recovery from reversible effects of previous therapies, if any. Subjects included in the study provided their informed consent.
Approximately 52 patients meeting the above-described criteria were enrolled in the study. Of the patients treated, approximately 60% were male and 40% female, ranging in age from 23 to 85 years. A wide range of tumor types were included in the study, including colon, ovarian, prostate, and lung tumors. Most of the enrollees had received multiple rounds of other chemotherapies prior to entering the study.
(§1) H1/H2 blockers were given orally to the subjects 30-60 minutes prior to infusion to prevent any adverse reactions to the CREMOPHOR® in the composition. […] Thus, a dosage of 9 mg/m^2 required about 10-15 minutes of infusing, while a dose of 150 mg/m^2 required 3-4 hours of dosing. The patients were monitored by testing CBC with differential weekly, various laboratory tests every three weeks, and physical exams including neurological assessment every three weeks. Tumor assessments were made every six weeks.

[3] = Pharmacokinetics of epothilone D in patients (plasma levels by LC/MS/MS after intravenous infusion); format: in vivo, human
Procedure: as §1
Both the pharmacokinetics and pharmacodynamics of epothilone D were measured in the subjects. Plasma concentration as a function of time was measured in the first- and second cycles at various dose levels in several subjects.
As would be expected, the levels at the end of infusion are high and taper off gradually, and the concentration levels at any particular time are dose-dependent.

[4] = tested on: microtubules in interphase cells (PBMC's); assay: Microtubule bundle formation in mononuclear cells (PBMC's) isolated from treated patients, immunofluorescence; format: in vivo, human
Source text: The activity of the drug can be assessed by measuring bundling of microtubules in interphase cells. This is considered the hallmark of activity of microtubule-stabilizing agents such as paclitaxel. The bundle formation can readily be measured by immunofluorescence or Western blotting. In a typical determination, whole blood is collected from patients and mononuclear cells (PBMC's) are isolated for evaluation of bundle formation.
In addition to monitoring toxicity and pharmacokinetics, the pharmacodynamics of treatment was also monitored. The standard criterion is the ability of the drug to effect bundling of microtubules in interphase cells. Whole blood was collected from patients and mononuclear cells (PBMC's) were isolated. To measure bundle formation, the PBMC's were resuspended in 5% FBS/PBS containing 0.75×10^6 cells/mL and used to make cytospin preparations. The cells were then fixed in 100% methanol for 10 minutes at […], air dried and stored at 4° C. prior to immunostaining. For immunostaining, the cells were blocked in 10% Normal Goat Serum in PBS for 20 minutes and incubated with a 1:100 dilution of {tilde over (□)}tubulin monoclonal antibody diluted in 5% Normal Goat Serum in PBS for 1 hour at 37° C. The slides were then rinsed in PBS and incubated with 1:200 Cy3-conjugated goat anti-mouse IgG for 1 hour in the dark before mounting. Cell numbers were quantified using a Zeiss AXIOSCOP microscope and evaluated at levels of 500 cells per slide by individual investigators.

[5] = Toxicity monitoring in the patient study; format: in vivo, human
Source text: In order to ensure that toxic limits are not exceeded, the effects of the administration on the subject are monitored. Possible effects include neurological impairment(s), which may manifest itself as cognitive/perceptual abnormalities, numbness in the limbs, difficulty in walking, dizziness, and the like. […] Other side effects may include nausea and vomiting, fatigue, rash, alopecia, and alteration in vital signs such as orthostatic hypotension.
H1/H2 blockers were given orally to the subjects 30-60 minutes prior to infusion to prevent any adverse reactions to the CREMOPHOR® in the composition. […] The patients were monitored by testing CBC with differential weekly, various laboratory tests every three weeks, and physical exams including neurological assessment every three weeks. Tumor assessments were made every six weeks.

Row | Compound | volume of distribution (Vz) [1] | disease status in patients receiving multiple cycles (at least four months) ([2]; human, in vivo) | tumor markers ([2]; ovarian, pancreatic, testicular, breast, and biliary diseases) | dependence of the area under the curve (AUC) on dosage ([3]; dose range about 9 mg/m^2 to about 150 mg/m^2, first and second cycles) | half-life ([3]; human, in vivo, intravenous infusion, summary over study, read-out: half-life, mean value) | clearance ([3]; human, in vivo, patients treated at 100 mg/m^2, averaged, read-out: Drug clearance (converted)) | half-life ([3]; human, in vivo, patients treated at 100 mg/m^2, averaged, read-out: elimination half-life (converted)) | Vd ([3]; human, in vivo, patients treated at 100 mg/m^2, averaged, read-out: volume of distribution (Vz)) | difference in pharmacokinetics between cycles ([3]; two cycles, three subjects at 60 mg/m^2) | percentage of PBMCs with microtubule bundles ([4]; dosage 18 mg/m^2) | percentage of PBMCs with microtubule bundles ([4]; dosage 120 mg/m^2) | bundle formation at low dosage ([4]; dosage as low as 18 mg/m^2) | time of toxicity ([5]; dose level between 9 mg and about 60 mg per m^2) | severity of toxicities ([5]; dose-dependent toxicities) | onset of toxicity ([5]; higher dosages such as 90 mg/m^2 and […]^2) | myelosuppression ([5]; human, in vivo)
1 | CC(=O)O[C@H]1C(=O)[C@@]2(C)[C@H]([C@H](OC(=O)c3ccccc3)[C@]3(O)C[C@H](OC(=O)[C@H](O)[C@@H](NC(=O)c4ccccc4)c4ccccc4)C(C)=C1C3(C)C)[C@]1(OC(C)=O)CO[C@@H]1C[C@@H]2O [paclitaxel] | 140±70 L/m^2 | – | – | – | – | – | – | – | – | – | – | – | – | – | – | –
2 | C/C1=C/C[C@@H](/C(C)=C/c2csc(C)n2)OC(=O)C[C@H](O)C(C)(C)C(=O)[C@H](C)[C@@H](O)[C@@H](C)CCC1 [epothilone D, Desoxyepothilone B] | – | suggestive of stable disease | Tumor marker reductions were observed | linear correlation | 8 to 10 h | 315 mL/min | 8.8 ± 2.4 h | 232 ± 82 L | no discernable difference | 12% | 55% | Substantial amounts of bundle formation | start at day five and continue to day 15 | generally of Grade-2 in severity | as soon as the day after infusion is terminated | generally not been seen; also recorded: No clear evidence of myelosuppression was observed
